The values that follow come from PubChem BioAssay (NCI).

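Exposure lasted 48 hours, with cells grown in 96-well plates and compounds tested at five concentrations. Here, GI50 denotes the concentration required for 50% inhibition of growth. Definition used: TGI = concentration required for complete inhibition of growth.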

Some test systems named below: ACHN renal; HCC-2998 colon; HCT-15 colon; OVCAR-3 ovarian; OVCAR-8 ovarian; SK-MEL-28 melanoma; M14 melanoma; TK-10 renal.
Common to all, as to assay: DTP human tumour cell line panel, 48 h

Regarding `COc1cc(C(=O)c2cnc(-c3c[nH]c4cccc(C)c34)[nH]2)cc(OC)c1OC`, the GI50 is 0.00846 µM in the assay with ACHN renal; 0.0183 µM with HCC-2998 colon; 0.00659 µM in the assay with HCT-15 colon; 0.00332 µM in the assay on OVCAR-3 ovarian; 0.0078 µM with OVCAR-8 ovarian; 0.99 µM with SK-MEL-28 melanoma. Also, the TGI is 26.7 µM with ACHN renal; 29.4 µM in the assay with HCC-2998 colon; over 100 µM in the assay on HCT-15 colon; 0.0125 µM with OVCAR-3 ovarian; 43.2 µM in the assay on OVCAR-8 ovarian; 97.4 µM with SK-MEL-28 melanoma.

On to `CCCN1C(=O)/C(=C/c2ccc(SC(F)(F)F)cc2)SC1=Nc1ccc(OC)cc1`, for which the GI50 is 5.53 µM in the assay on ACHN renal; 2.65 µM in the assay on HCT-15 colon; 18.6 µM in the assay with M14 melanoma; 13.5 µM in the assay with OVCAR-3 ovarian; 7.42 µM with OVCAR-8 ovarian; 28.4 µM in the assay with SK-MEL-28 melanoma. Besides, the GI50 with TK-10 renal is 7.1 µM. For the same compound, the TGI is 11.8 µM in the assay with ACHN renal; 36.9 µM with HCT-15 colon; over 50 µM in the assay with M14 melanoma; 31.1 µM in the assay with OVCAR-3 ovarian; 20.7 µM with OVCAR-8 ovarian; over 50 µM with SK-MEL-28 melanoma. For the same compound, the TGI with TK-10 renal came out at 19.2 µM.

`O=C(/C=C/c1ccc(O)c(O)c1)N1CCN(c2ccc(Cl)cc2)CC1`: the GI50 is 4.01 µM in the assay with ACHN renal; 10.5 µM with HCC-2998 colon; 3.83 µM in the assay with HCT-15 colon; 8.98 µM with M14 melanoma; 5.46 µM in the assay with OVCAR-8 ovarian; 11.5 µM in the assay with SK-MEL-28 melanoma. In addition, in the assay with TK-10 renal, the GI50 is 3.59 µM. Also, the TGI in the assay with ACHN renal was 38.2 µM; with HCC-2998 colon, 23.8 µM; in the assay on HCT-15 colon, 29.2 µM; with M14 melanoma, 47.1 µM; with OVCAR-8 ovarian, 44.4 µM; with SK-MEL-28 melanoma, 58.5 µM. For the same compound, the TGI in the assay on TK-10 renal came out at 26.2 µM.

Turning to `OCCCN=C1CCCCC1`, the TGI with ACHN renal, in the assay with HCT-15 colon, in the assay with M14 melanoma, in the assay on OVCAR-3 ovarian, with OVCAR-8 ovarian and in the assay with SK-MEL-28 melanoma was over 100 µM throughout. Besides, the concentration for total growth inhibition (TGI) in the assay on TK-10 renal was over 100 µM.

As for `COc1cc(-c2nc(-c3ccccc3)c(-c3ccccc3)[nH]2)cc(OC)c1O`, the GI50 is 14.2 µM in the assay on ACHN renal; 17.1 µM in the assay on HCC-2998 colon; 13.3 µM with HCT-15 colon; 18.3 µM with OVCAR-3 ovarian; 26.5 µM in the assay with OVCAR-8 ovarian; 14.9 µM in the assay with SK-MEL-28 melanoma. Moreover, the GI50 with TK-10 renal is 25.1 µM. The TGI came to 33.1 µM with ACHN renal; 32.7 µM with HCC-2998 colon; 41.4 µM with HCT-15 colon; 34.2 µM with OVCAR-3 ovarian; 83.2 µM in the assay with OVCAR-8 ovarian; 31.1 µM in the assay with SK-MEL-28 melanoma. In the assay on TK-10 renal, the TGI was 50.5 µM.

In the case of `Fc1ccccc1CN1COc2c(cc(Cl)c3cccnc23)C1`, the TGI in the assay with ACHN renal came to 10.3 µM; in the assay on HCT-15 colon, 2.23 µM; in the assay on M14 melanoma, 12 µM; with OVCAR-3 ovarian, 19.2 µM; with OVCAR-8 ovarian it was 10.7 µM; with SK-MEL-28 melanoma, 18.7 µM. The TGI in the assay with TK-10 renal was found to be 18 µM.

With `Cc1cc(C)c2nc3c(c(C(O)C4CCCCN4)c2c1)CC/C3=C\c1ccc(Cl)cc1` (stereo not drawn), the TGI in the assay with ACHN renal, in the assay with HCT-15 colon, with M14 melanoma, in the assay on OVCAR-3 ovarian, with OVCAR-8 ovarian and in the assay on SK-MEL-28 melanoma was over 100 µM each time. Also, the TGI in the assay on TK-10 renal was over 100 µM.

For `CC(C)(O)C1COC2=C1C(=O)c1ccccc1C2=O` (stereo not drawn), the TGI with ACHN renal was over 100 µM; in the assay on HCC-2998 colon, over 100 µM; in the assay on HCT-15 colon, over 100 µM; in the assay with M14 melanoma, over 100 µM; in the assay with OVCAR-3 ovarian, 57.8 µM; with OVCAR-8 ovarian, 84.6 µM. Moreover, the TGI with SK-MEL-28 melanoma was 46 µM.

Regarding `O=c1ccc(N=Nc2ccccc2)ccc1O`, the TGI in the assay with ACHN renal was determined as 26 µM; with HCT-15 colon, 19.8 µM; with M14 melanoma, 28.5 µM; in the assay with OVCAR-3 ovarian, 22 µM; in the assay on OVCAR-8 ovarian it was 43.9 µM; in the assay on SK-MEL-28 melanoma, 32.9 µM. In the assay on TK-10 renal, this compound registered a TGI of 60.2 µM.

As to `COc1cc(C2CC(c3ccccc3)=NN2C=O)ccc1Oc1ccnc2cc(Cl)ccc12` (stereo not drawn), the GI50 with ACHN renal was 17.4 µM; in the assay with HCC-2998 colon it was over 100 µM; in the assay on HCT-15 colon it was over 100 µM; in the assay on M14 melanoma, 5.83 µM; with OVCAR-3 ovarian it was 18.6 µM; in the assay on OVCAR-8 ovarian it was 4.91 µM. In the assay on SK-MEL-28 melanoma, the GI50 was over 100 µM. Besides, the TGI with ACHN renal, in the assay with HCC-2998 colon, in the assay with HCT-15 colon, in the assay with M14 melanoma, in the assay with OVCAR-3 ovarian and with OVCAR-8 ovarian was over 100 µM throughout. The compound also came in with a TGI in the assay on SK-MEL-28 melanoma of over 100 µM.

For the compound `O=[N+]([O-])c1cccc(/C=N/Nc2ccc3ccccc3n2)c1O`, the TGI in the assay with HCT-15 colon is over 100 µM; in the assay on M14 melanoma, 5.32 µM; in the assay on OVCAR-3 ovarian it was 0.632 µM; in the assay on OVCAR-8 ovarian, over 39 µM; with SK-MEL-28 melanoma it was over 65.6 µM; in the assay on TK-10 renal, over 44.9 µM.

Consider `O=C1C(Cl)=C(Nc2ccc(S(=O)(=O)c3ccc(NC4=C(Cl)C(=O)c5ccccc5C4=O)cc3)cc2)C(=O)c2ccccc21`, for which the GI50 in the assay on ACHN renal was 1.31 µM; in the assay on HCC-2998 colon, 2.82 µM; in the assay with M14 melanoma, 1.82 µM; in the assay with SK-MEL-28 melanoma, 1.8 µM; in the assay on TK-10 renal, 1.67 µM. Besides, the TGI in the assay with ACHN renal came to 2.69 µM; in the assay with HCC-2998 colon it was 6.33 µM; in the assay on M14 melanoma, 3.26 µM; in the assay on SK-MEL-28 melanoma, 3.28 µM; with TK-10 renal, 3.04 µM.

As for `Cc1ccc(NCCNCC(C)(C)O)c2c(=O)c3ccc(Cl)cc3sc12`, the GI50 in the assay on HCC-2998 colon was 1.38 µM; in the assay with HCT-15 colon, 1.05 µM; in the assay with M14 melanoma, 1.66 µM; in the assay on OVCAR-3 ovarian, 1.66 µM; in the assay on OVCAR-8 ovarian, 1.77 µM; with SK-MEL-28 melanoma, 1.81 µM. In addition, in the assay on TK-10 renal, the GI50 is 2.17 µM. In addition, the TGI in the assay with HCC-2998 colon was 2.91 µM; with HCT-15 colon, 2.32 µM; in the assay on M14 melanoma, 3.26 µM; in the assay on OVCAR-3 ovarian, 3.13 µM; with OVCAR-8 ovarian, 3.32 µM; in the assay on SK-MEL-28 melanoma, 3.38 µM. The TGI in the assay with TK-10 renal was 3.89 µM.

A word on the GI50: it is the concentration that inhibits growth by half. For orientation: TGI means the concentration giving total growth inhibition. A low value points to more potent growth arrest.
